The target of one data set is T1, ovine COX-2 (Ovis aries, UniProt P79208).
T1 construct: purchased Cayman chemical, MI, USA
T1 sequence (P79208 17-603): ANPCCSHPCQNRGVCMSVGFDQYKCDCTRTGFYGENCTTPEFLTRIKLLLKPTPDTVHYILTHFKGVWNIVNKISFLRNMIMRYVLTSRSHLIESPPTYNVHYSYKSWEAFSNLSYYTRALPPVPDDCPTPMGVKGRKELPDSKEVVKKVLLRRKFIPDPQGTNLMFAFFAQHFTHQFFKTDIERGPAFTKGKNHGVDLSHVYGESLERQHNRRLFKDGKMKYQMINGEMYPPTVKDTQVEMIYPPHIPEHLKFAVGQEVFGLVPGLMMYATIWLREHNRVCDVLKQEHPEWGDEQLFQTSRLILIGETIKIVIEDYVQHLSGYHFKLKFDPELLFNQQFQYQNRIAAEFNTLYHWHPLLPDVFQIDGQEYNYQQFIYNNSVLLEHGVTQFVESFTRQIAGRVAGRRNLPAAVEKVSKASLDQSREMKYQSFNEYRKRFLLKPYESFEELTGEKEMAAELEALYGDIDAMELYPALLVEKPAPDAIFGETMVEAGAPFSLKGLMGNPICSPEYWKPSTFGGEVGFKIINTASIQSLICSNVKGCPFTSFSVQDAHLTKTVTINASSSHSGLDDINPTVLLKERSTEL
As to the kind of experiment: biochemical. To be noted: for Selectivity index (SI): COX-1 IC50/COX-2 IC50; for IC50: ovine COX-1/COX-2 assay kit, means of two determinations. The source says: (§1) In-vitro cyclooxygenase (COX) inhibition assay
(§2) Enzyme chemiluminescent kit (Cayman chemical, MI, USA) was used to evaluate inhibition activities of synthesized compounds based on our previous reported procedure ([34]). The Cayman chemical chemiluminescent COX (ovine) inhibitor screening assay employs the heme-catalyzed hydroperoxidase activity of ovine cyclooxygenases to produce luminescence in the presence of a cyclic naphthalene hydrazide and the substrate arachidonic acid.

A further data set has as its target T2, ovine COX-1 (Ovis aries, UniProt P05979).
T2 construct: purchased Cayman chemical, MI, USA
T2 sequence (P05979 25-600): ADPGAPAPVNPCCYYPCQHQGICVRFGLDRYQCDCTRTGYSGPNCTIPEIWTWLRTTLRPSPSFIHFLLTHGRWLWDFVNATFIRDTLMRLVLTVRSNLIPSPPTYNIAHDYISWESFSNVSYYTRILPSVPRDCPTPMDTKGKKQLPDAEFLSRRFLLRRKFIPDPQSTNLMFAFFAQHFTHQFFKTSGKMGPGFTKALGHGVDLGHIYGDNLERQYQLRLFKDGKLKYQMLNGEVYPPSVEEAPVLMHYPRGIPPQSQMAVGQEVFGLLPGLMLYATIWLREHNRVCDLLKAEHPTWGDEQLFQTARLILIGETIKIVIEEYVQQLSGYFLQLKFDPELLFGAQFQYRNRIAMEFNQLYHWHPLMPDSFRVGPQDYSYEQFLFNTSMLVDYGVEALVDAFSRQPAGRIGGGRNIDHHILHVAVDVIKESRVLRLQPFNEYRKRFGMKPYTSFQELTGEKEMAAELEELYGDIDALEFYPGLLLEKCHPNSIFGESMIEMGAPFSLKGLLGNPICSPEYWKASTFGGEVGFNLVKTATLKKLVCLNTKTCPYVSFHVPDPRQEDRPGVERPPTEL
As to the kind of experiment: biochemical. To be noted: ovine COX-1/COX-2 assay kit, means of two determinations.
Description: as §1, §2

Data set [1] relates to COX-2. To be noted: read-out: COX-2 IC50; cited from earlier work.
Another data set deals with COX-1. To be noted: read-out: IC50 Whole cell COX-1; cited from earlier work.
Data set [2] has as its system COX-2. To be noted: cited from earlier work.

Where two headings read alike, the source gives them in different places. Some results are limits rather than exact numbers.

The compound `CCN(CC)Cc1c(-c2ccc(S(C)(=O)=O)cc2)nc2sccn12` [Compound 6b, N-Ethyl-N-((6-(4-(methylsulfonyl)phenyl)imidazo[2,1-b]thiazol-5-yl)methyl)ethanamine] registered a melting point of 132 to 135 °C. For the same compound, on ovine COX-2, the “Selectivity index (SI)” value is 404.1 and the IC50 was determined as 120 nM. At ovine COX-1, this compound had an IC50 of 48500 nM.
`CS(=O)(=O)c1ccc(-c2nc3sccn3c2CN(CCO)CCO)cc1` [Compound 6g, 2,2′-(((6-(4-(Methylsulfonyl)phenyl)imidazo[2,1-b]thiazol-5-yl)methyl)azanediyl)bis(ethan-1-ol)] came in with a melting point of 168.8 to 170 °C. This compound yielded a half-maximal inhibitory concentration (IC50) against ovine COX-2 of 110 nM. This compound gave an IC50 against ovine COX-1 above 100000 nM.
As to `COc1ccc2[nH]c(-c3ccc(S(C)(=O)=O)cc3)cc2c1` [5-methoxy-2-(4-(methylsulfonyl)phenyl)-1H-indole], the half-maximal inhibitory concentration (IC50) in the data set with COX-2 [1] was 80 nM.
Consider `Cc1cnc2c(-c3ccc(F)cc3)c(-c3ccc(S(C)(=O)=O)cc3)nn2c1C` [3-(4-fluorophenyl)-6,7-dimethyl-2-(4-(methylsulfonyl)phenyl)pyrazolo[1,5-a]pyrimidine], for which the 50% inhibitory concentration (IC50) in the data set on COX-1 was above 10000 nM.
As to `CN(C)Cc1c(-c2ccc(S(C)(=O)=O)cc2)nc2sccn12` [Compound 6a, N,N-Dimethyl-1-(6-(4-(methylsulfonyl)phenyl)imidazo[2,1-b]thiazol-5-yl)methanamine], the melting point lay within 123 to 124 °C. On ovine COX-2, this compound returned an IC50 of 80 nM. At ovine COX-1, the IC50 was above 100000 nM.
As for `CCCN(CCC)Cc1c(-c2ccc(S(C)(=O)=O)cc2)nc2sccn12` [Compound 6c, N-((6-(4-(Methylsulfonyl)phenyl)imidazo[2,1-b]thiazol-5-yl)methyl)-N-propylpropan-1-amine], the melting point is 165 to 167 °C.
In turn, `CS(=O)(=O)c1ccc(-c2nc3sccn3c2CN2CCOCC2)cc1` [Compound 6f, 4-((6-(4-(Methylsulfonyl)phenyl)imidazo[2,1-b]thiazol-5-yl)methyl)morpholine] showed a melting point of 203 to 206 °C. In addition, at ovine COX-2, the “Selectivity index (SI)” value is given as 551.0 and it took 100 nM to reach half-maximal inhibition (IC50). Besides, 55100 nM corresponded to half-maximal inhibition against ovine COX-1 (IC50).
With `CS(=O)(=O)c1ccc(-c2nc3ccccn3c2CN2CCOCC2)cc1` [2-(4-(methylsulfonyl)phenyl)-3-(morpholinomethyl)H-imidazo[1,2-a]pyridine], the SI in the data set on COX-2 [2] (COX-2 selectivity index) is 217.1. In addition, in the data set on COX-2 [2] (read-out: IC50 (COX-2 inhibition)), the half-inhibitory concentration (IC50) was 70 nM.
`CS(=O)(=O)c1ccc(-c2nc3sccn3c2CN2CCCCC2)cc1` [Compound 6e, 6-(4-(Methylsulfonyl)phenyl)-5-(piperidin-1-ylmethyl)imidazo[2,1-b]thiazole] had a melting point of 142.6 to 144 °C. For the same compound, on ovine COX-2, the “Selectivity index (SI)” value is recorded as 313.1 and the IC50 came to 160 nM. The midpoint of inhibition against ovine COX-1, the IC50, lay at 50100 nM.
Regarding `CS(=O)(=O)c1ccc(-c2nc3sccn3c2CN2CCCC2)cc1` [Compound 6d, 6-(4-(Methylsulfonyl)phenyl)-5-(pyrrolidin-1-ylmethyl)imidazo[2,1-b]thiazole], the melting point lay in the range of 144 to 146 °C. Moreover, on ovine COX-2, the “Selectivity index (SI)” value amounted to 134.4 and half-maximal inhibition (IC50) required 90 nM. Besides, at ovine COX-1, the 50% inhibitory concentration (IC50) is 12100 nM.

The term IC50 denotes the midpoint of a concentration-inhibition curve. As usually defined, the melting point is the temperature of the solid-liquid transition.

The values above are taken from PMC6269562, “Design, Synthesis and Biological Evaluation of New Imidazo[2,1-b]Thiazole Derivatives as Selective COX-2 Inhibitors” (Iranian Journal of Pharmaceutical Research : IJPR, 2018).
